Measured values as given in patent US20130184280A1, “SUBSTITUTED THIAZOLES AS VEGFR2 KINASE INHIBITORS” (TELIK, INC., priority 2011, published 2013).

Assays:
[1] = test system: HCT116 (human colon carcinoma); test: In Vivo HCT116 Xenograft Model; settings: athymic nu/nu mice
[2] = In Vitro Cytotoxicity Assay HCT116 (CellTiter-Glo); assay type: cell-based; settings: human, HCT116 colon carcinoma cells, cultured three days
Procedure: (§1) The cell lines HL60 (human promyelocytic leukemia) and HCT116 (human colon carcinoma) were obtained from the American Type Culture Collection, Manassas, Va., U.S.A. All products were used in accordance with manufacturer's directions. The cytotoxicity assays were conducted in triplicate, in each case with solvent control.
(§2) Log-phase cells were trypsinized, collected by centrifugation, and resuspended in a small volume of fresh medium, and the density of viable cells was determined following Trypan Blue staining Cells were diluted in fresh media, the test compounds (concentrations between 0.1 μM and 200 μM, dissolved in DMSO, 50 μL) added immediately after dilution to achieve a final DMSO concentration of 0.5%, then the suspensions added at 150 μL/well to 96-well plates, and incubated overnight to allow attachment in the case of adherent cells. The cells were cultured for three days (about three doubling times). The cells were then collected by centrifugation, and 100 μL of the culture supernatant was replaced by the CellTiter-Glo reagent. After incubation for 15 minutes at room temperature, the plate was read with a luminometer. […] The table gives cytotoxicity IC50s in μm.

[3] = In Vitro Cytotoxicity Assay HL60 (CellTiter-Glo); assay type: cell-based; settings: human, HL60 promyelocytic leukemia cells; HL 60 cells, cultured three days
Procedure: as §1, §2

VEGFR2 kinase = target: T1, VEGFR2 kinase (Homo sapiens, UniProt P35968); test: In Vitro VEGFR2 Kinase Assay; assay type: biochemical; settings: FP; CSKtide substrate, 60 minutes at room temperature
T1 construct: purchased InVitrogen
Procedure: In Vitro VEGFR2 Kinase Assay
50 ng/well VEGFR2 kinase (from InVitrogen) was mixed in buffer (14.5 μL/well). To this were added, 0.5 μL of the compound of this invention at a concentration of 2.5% in DMSO. After incubatiuon for 5 minutes at room temperature, 5 μL of substrate (CSKtide, 400 nM) and 8 μL ATP were added. The mixture was incubated for 60 minutes at room temperature and 60 uL of binding reagent (beads) was added. After incubation overnight at room temperature, the plate was read with a LJL plate reader.

[4] = 30 mg/Kg intraperitoneally once/day on days 1-5 and 8-12, measured 2 days after last treatment

T1 sequence (P35968 20-1356): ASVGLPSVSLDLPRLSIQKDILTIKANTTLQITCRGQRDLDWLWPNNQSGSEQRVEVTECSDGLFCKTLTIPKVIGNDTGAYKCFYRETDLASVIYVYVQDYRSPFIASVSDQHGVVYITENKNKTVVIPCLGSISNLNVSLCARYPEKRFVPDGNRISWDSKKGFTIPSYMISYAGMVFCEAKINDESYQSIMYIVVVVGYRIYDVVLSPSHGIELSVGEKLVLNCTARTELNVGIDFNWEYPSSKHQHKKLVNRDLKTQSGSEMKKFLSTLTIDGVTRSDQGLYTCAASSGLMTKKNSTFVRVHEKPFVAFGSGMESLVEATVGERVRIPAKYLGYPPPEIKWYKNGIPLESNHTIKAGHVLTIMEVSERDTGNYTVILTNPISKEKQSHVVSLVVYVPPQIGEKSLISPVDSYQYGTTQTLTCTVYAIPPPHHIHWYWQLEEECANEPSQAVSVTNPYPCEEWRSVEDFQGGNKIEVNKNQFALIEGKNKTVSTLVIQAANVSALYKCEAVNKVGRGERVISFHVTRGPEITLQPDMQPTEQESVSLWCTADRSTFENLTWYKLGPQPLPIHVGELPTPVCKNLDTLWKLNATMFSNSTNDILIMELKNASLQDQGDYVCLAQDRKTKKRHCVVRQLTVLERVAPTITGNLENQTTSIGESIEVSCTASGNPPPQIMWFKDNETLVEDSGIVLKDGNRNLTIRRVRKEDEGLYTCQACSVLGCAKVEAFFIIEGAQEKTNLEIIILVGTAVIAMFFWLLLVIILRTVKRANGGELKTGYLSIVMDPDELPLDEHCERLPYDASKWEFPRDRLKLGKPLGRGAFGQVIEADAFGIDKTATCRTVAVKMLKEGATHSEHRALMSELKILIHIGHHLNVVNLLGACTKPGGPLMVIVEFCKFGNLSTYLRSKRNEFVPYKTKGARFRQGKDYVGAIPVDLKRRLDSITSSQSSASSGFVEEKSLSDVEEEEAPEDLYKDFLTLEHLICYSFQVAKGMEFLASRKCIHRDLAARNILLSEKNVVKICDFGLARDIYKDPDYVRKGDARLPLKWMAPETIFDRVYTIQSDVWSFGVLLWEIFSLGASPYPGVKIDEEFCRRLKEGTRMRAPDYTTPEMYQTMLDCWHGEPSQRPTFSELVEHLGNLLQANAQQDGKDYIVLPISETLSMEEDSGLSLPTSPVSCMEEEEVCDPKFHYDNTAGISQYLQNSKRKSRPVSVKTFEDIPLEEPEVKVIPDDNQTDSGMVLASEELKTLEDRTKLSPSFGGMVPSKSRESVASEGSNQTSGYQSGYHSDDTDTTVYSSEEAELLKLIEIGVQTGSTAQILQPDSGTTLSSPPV

Row | IC50 (VEGFR2 kinase) | Compound | Tumor growth inhibition [1, 4] | IC50 at 3 days [2] | IC50 at 3 days [3] | Tumor growth inhibition ([1]; administered orally)
1 | 20 nM | Nc1ncncc1-c1nc(-c2cccc(NC(=O)c3ccccc3)c2)cs1 [Compound 3] | showed inhibition of tumor growth compared to vehicle | 20000 nM | 3000 nM | –
2 | 10 nM | Cc1cccc(NC(=O)Nc2cccc(-c3csc(-c4cncnc4N)n3)c2)c1 [Compound 17, 1-(3-(2-(4-aminopyrimidin-5-yl)thiazol-4-yl)phenyl)-3-m-tolylurea] | showed inhibition of tumor growth compared to vehicle | 1000 nM | 300 nM | –
3 | 70 nM | CCc1ccc(NC(=O)Nc2cccc(-c3csc(-c4cncnc4N)n3)c2)cc1 [Compound 28] | – | 8000 nM | 1000 nM | –
4 | 20 nM | Nc1ncncc1-c1nc(-c2cccc(NC(=O)Nc3cccc(C(F)(F)F)c3)c2)cs1 [Compound 39] | – | 2000 nM | 1000 nM | –
5 | 20 nM | Nc1ncncc1-c1nc(-c2cccc(NC(=O)Nc3cccc(CN4CCOCC4)c3)c2)cs1 [Compound 46] | showed inhibition of tumor growth compared to vehicle | 8000 nM | 700 nM | showed inhibition of tumor growth when administered orally
6 | 500 nM | Nc1ncncc1-c1nc(-c2cccc(NC(=O)c3cccc(CN4CCOCC4)c3)c2)cs1 [Compound 52] | – | 4000 nM | 1000 nM | –
7 | 400 nM | CN(C)Cc1cccc(C(=O)Nc2cccc(-c3csc(-c4cncnc4N)n3)c2)c1 [Compound 55] | – | 2000 nM | 400 nM | –
8 | 100 nM | Nc1ncncc1-c1nc(-c2cccc(NC(=O)c3cccc(CNCCO)c3)c2)cs1 [Compound 56] | – | 3000 nM | 2000 nM | –
9 | 60 nM | Nc1ncncc1-c1nc(-c2cccc(NC(=O)NCc3ccccc3)c2)cs1 [Compound 58] | – | 4000 nM | 400 nM | –
10 | 40 nM | Nc1ncncc1-c1nc(-c2cccc(NC(=O)NC3CCCCC3)c2)cs1 [Compound 65] | – | 8000 nM | 1000 nM | –
11 | 60 nM | Nc1ncncc1-c1nc(-c2cccc(NC(=O)Nc3ccc4c(c3)OCO4)c2)cs1 [Compound 72] | – | 2000 nM | 300 nM | –
